Measurements from patent publication US10745382B2 (BRISTOL-MYERS SQUIBB COMPANY, priority 2015, dated 2020).
Read-outs that look alike come from different tables or passages of the source.

Molecular target: T1, PD-1/PD-L1 (Homo sapiens, UniProt Q9NZQ7)
T1 construct: made in house; host or cells: HEK293T
Assay: PD-1/PD-L1 Homogenous Time-Resolved Fluorescence (HTRF) binding assay
Details: PD-L1-His 10 nM, PD-1-Ig 20 nM, read-out: Range or IC50
Outline: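 Binding measured in dPBS with 0.1% BSA and 0.05% Tween-20, detected by HTRF with europium cryptate anti-Ig (1 nM final) and APC anti-His (20 nM final) added over the binding reaction. Counter-assays used human PD-1-Ig/PD-L2-His (20 and 5 nM) and CD80-His/PD-L1-Ig (100 and 10 nM).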

T1 sequence (Q9NZQ7 with tags, fused parts or gaps): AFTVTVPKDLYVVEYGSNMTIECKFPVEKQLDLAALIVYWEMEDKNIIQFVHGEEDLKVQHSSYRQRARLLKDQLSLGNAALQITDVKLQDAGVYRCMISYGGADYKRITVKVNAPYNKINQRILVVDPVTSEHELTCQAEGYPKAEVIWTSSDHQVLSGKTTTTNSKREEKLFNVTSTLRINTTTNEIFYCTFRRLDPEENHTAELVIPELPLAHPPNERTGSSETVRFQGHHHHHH

IC50 (value given as range class) [nM] | IC50 (numeric IC50) [nM] | Structure (SMILES)
0.21 to 10 | – | Cc1c(COc2cc(OCc3cncc(C#N)c3)c(CN3CCCC[C@H]3C(=O)O)cc2Cl)cccc1-c1ccc2c(c1C)OCCO2 [Example 3044, (2S)-1-(5-chloro-2-((5-cyanopyridin-3-yl)methoxy)-4-((2-methyl-3-(5-methyl-2,3-dihydrobenzo[b][1,4]dioxin-6-yl)benzyl)oxy)benzyl)piperidine-2-carboxylic Acid]
0.21 to 10 | – | Cc1c(COc2cc(OCc3cncc(C(N)=O)c3)c(CN3CCCC[C@H]3C(=O)O)cc2Cl)cccc1-c1cccc(OCCCN2CCC(CO)(C(=O)O)CC2)c1C [Example 1111, (S)-1-(2-((5-carbamoylpyridin-3-yl)methoxy)-4-((3′-(3-(4-carboxy-4-(hydroxymethyl)piperidin-1-yl)propoxy)-2,2′-dimethyl-[1,1′-biphenyl]-3-yl)methoxy)-5-chlorobenzyl)piperidine-2-carboxylic Acid]
0.21 to 10 | – | Cc1c(COc2cc(OCc3cncc(C#N)c3)c(CNC(CO)CO)cc2Cl)cccc1-c1cccc(OCCCN2CCC(F)(F)C2)c1C [Example 4116, 5-((4-chloro-5-((3′-(3-(3,3-difluoropyrrolidin-1-yl)propoxy)-2,2′-dimethyl-[1,1′-biphenyl]-3-yl)methoxy)-2-(((1,3-dihydroxypropan-2-yl)amino)methyl)phenoxy)methyl)nicotinonitrile]
0.21 to 10 | – | Cc1c(COc2cc(OCc3cncc(C(N)=O)c3)c(CN[C@](C)(CO)C(=O)O)cc2Cl)cccc1-c1cccc(OCCCN2CCC(CO)(C(=O)O)CC2)c1Cl [Example 1116, (R)-1-(3-((3′-((5-((5-carbamoylpyridin-3-yl)methoxy)-4-(((2-carboxy-1-hydroxypropan-2-yl)amino)methyl)-2-chlorophenoxy)methyl)-2-chloro-2′-methyl-[1,1′-biphenyl]-3-yl)oxy)propyl)-4-(hydroxymethyl)piperidine-4-carboxylic Acid]
0.21 to 10 | – | CCC(CO)(CO)NCCCOc1cccc(-c2cccc(COc3cc(OCc4cncc(C#N)c4)c(CNC(CC)(CO)CO)cc3Cl)c2C)c1C [Example 2278, 5-((4-chloro-2-(((1-hydroxy-2-(hydroxymethyl)butan-2-yl)amino)methyl)-5-((3′-(3-((1-hydroxy-2-(hydroxymethyl)butan-2-yl)amino)propoxy)-2,2′-dimethyl-[1,1′-biphenyl]-3-yl)methoxy)phenoxy)methyl)nicotinonitrile]
– | 0.5 | Cc1c(COc2cc(OCc3cncc(C#N)c3)c(CN(C)C(CO)(CO)CO)cc2Cl)cccc1-c1cccc(OCCCN2CCC(F)(F)C2)c1C [Example 4121, 5-((4-chloro-5-((3′-(3-(3,3-difluoropyrrolidin-1-yl)propoxy)-2,2′-dimethyl-[1,1′-biphenyl]-3-yl)methoxy)-2-(((1,3-dihydroxy-2-(hydroxymethyl)propan-2-yl)(methyl)amino)methyl)phenoxy)methyl)nicotinonitrile]
0.21 to 10 | – | COC(=O)[C@@H]1CCCCN1Cc1cc(Cl)c(OCc2cccc(-c3cccc(OCCCN4CC[C@@H](O)C4)c3C)c2C)cc1OCc1cncc(C#N)c1 [Example 3067, methyl (S)-1-(5-chloro-2-((5-cyanopyridin-3-yl)methoxy)-4-((3′-(3-((R)-3-hydroxypyrrolidin-1-yl)propoxy)-2,2′-dimethyl-[1,1′-biphenyl]-3-yl)methoxy)benzyl)piperidine-2-carboxylate]
0.21 to 10 | – | CCOC(=O)C1(CO)CCN(CCCOc2cccc(-c3cccc(COc4cc(OCc5cncc(C#N)c5)c(CN[C@](C)(CO)C(=O)O)cc4Cl)c3C)c2C)C1 (stereo partly drawn) [Example 1049, (2R)-2-((5-chloro-2-((5-cyanopyridin-3-yl)methoxy)-4-((3′-(3-(3-(ethoxycarbonyl)-3-(hydroxymethyl)pyrrolidin-1-yl)propoxy)-2,2′-dimethyl-[1,1′-biphenyl]-3-yl)methoxy)benzyl)amino)-3-hydroxy-2-methylpropanoic Acid]
0.21 to 10 | – | Cc1c(COc2cc(OCc3cncc(S(C)(=O)=O)c3)c(CN[C@@](C)(CO)C(=O)O)cc2Cl)cccc1-c1cccc(OCCCN2CCC(O)(C(=O)O)CC2)c1C [Example 1041, (S)-1-(3-((3′-((4-(((2-carboxy-1-hydroxypropan-2-yl)amino)methyl)-2-chloro-5-((5-(methylsulfonyl)pyridin-3-yl)methoxy)phenoxy)methyl)-2,2′-dimethyl-[1,1′-biphenyl]-3-yl)oxy)propyl)-4-hydroxypiperidine-4-carboxylic Acid]
0.21 to 10 | – | COC(=O)C1(O)CCN(CCCOc2cccc(-c3cccc(COc4cc(OCc5cncc(C#N)c5)c(CN[C@H](CO)C(=O)O)cc4Cl)c3C)c2)CC1 [Example 1028, (R)-2-((5-chloro-2-((5-cyanopyridin-3-yl)methoxy)-4-((3′-(3-(4-hydroxy-4-(methoxycarbonyl)piperidin-1-yl)propoxy)-2-methyl-[1,1′-biphenyl]-3-yl)methoxy)benzyl)amino)-3-hydroxypropanoic Acid]
0.21 to 10 | – | Cc1ccc(OCCCN2CC[C@@H](O)C2)c(C)c1-c1cccc(COc2cc(OCc3cncc(C#N)c3)c(CN[C@@](C)(CO)C(=O)O)cc2Cl)c1C [Example 3028, (2S)-2-((5-chloro-2-((5-cyanopyridin-3-yl)methoxy)-4-((3′-(3-((R)-3-hydroxypyrrolidin-1-yl)propoxy)-2,2′,6′-trimethyl-[1,1′-biphenyl]-3-yl)methoxy)benzyl)amino)-3-hydroxy-2-methylpropanoic Acid]
0.21 to 10 | – | Cc1c(COc2cc(OCc3cncc(C#N)c3)c(CN3CCCC[C@H]3C(=O)O)cc2Cl)cccc1-c1cccc(OCCCN2CCC(O)C2)c1C (stereo in doubt) [Example 3006, (S)-1-(5-chloro-2-((5-cyanopyridin-3-yl)methoxy)-4-((3′-(3-((R)-3-hydroxypyrrolidin-1-yl)propoxy)-2,2′-dimethyl-[1,1′-biphenyl]-3-yl)methoxy)benzyl)piperidine-2-carboxylic Acid]
0.21 to 10 | – | Cc1c(COc2cc(OCc3cncc(C#N)c3)c(C(C)N(C)C(CO)CO)cc2Cl)cccc1-c1cccc(OCCCN2CC[C@@H](O)C2)c1C (stereo partly drawn) [Example 4140, 5-((4-chloro-2-(1-((1,3-dihydroxypropan-2-yl)(methyl)amino)ethyl)-5-((3′-(3-((R)-3-hydroxypyrrolidin-1-yl)propoxy)-2,2′-dimethyl-[1,1′-biphenyl]-3-yl)methoxy)phenoxy)methyl)nicotinonitrile]
0.21 to 10 | – | Cc1c(COc2cc(OCc3cncc(C(N)=O)c3)c(CN3CCCC[C@H]3C(=O)O)cc2Cl)cccc1-c1cccc(OCCCN2CCC(CO)(C(=O)O)C2)c1Cl (stereo partly drawn) [Example 1107, (2S)-1-(2-((5-carbamoylpyridin-3-yl)methoxy)-4-((3′-(3-(3-carboxy-3-(hydroxymethyl)pyrrolidin-1-yl)propoxy)-2′-chloro-2-methyl-[1,1′-biphenyl]-3-yl)methoxy)-5-chlorobenzyl)piperidine-2-carboxylic Acid]
0.21 to 10 | – | Cc1c(COc2cc(OCc3cncc(C#N)c3)c(CNC[C@H](O)CO)cc2Cl)cccc1-c1cccc(OCCCN(C)C[C@H](O)CO)c1Cl [Example 2029, 5-((4-chloro-5-((2′-chloro-3′-(3-(((S)-2,3-dihydroxypropyl)(methyl)amino)propoxy)-2-methyl-[1,1′-biphenyl]-3-yl)methoxy)-2-((((S)-2,3-dihydroxypropyl)amino)methyl)phenoxy)methyl)nicotinonitrile]
0.21 to 10 | – | Cc1c(COc2cc(OCc3cncc(C(N)=O)c3)c(CN[C@H](CO)C(=O)O)cc2Cl)cccc1-c1cccc(OCCCN2CCC(O)(C(=O)O)CC2)c1C [Example 1035, (R)-1-(3-((3′-((5-((5-carbamoylpyridin-3-yl)methoxy)-4-(((1-carboxy-2-hydroxyethyl)amino)methyl)-2-chlorophenoxy)methyl)-2,2′-dimethyl-[1,1′-biphenyl]-3-yl)oxy)propyl)-4-hydroxypiperidine-4-carboxylic Acid]

Structure (SMILES) | IC50 (value given as range class) [nM] | IC50 (numeric IC50) [nM]
Cc1c(CCCCN2CC[C@@H](O)C2)cccc1-c1cccc(COc2cc(OCc3cncc(C#N)c3)c(CN[C@@H](CNC(=O)OC(C)(C)C)C(=O)O)cc2Cl)c1C [Example 4067, (S)-3-((tert-butoxycarbonyl)amino)-2-((5-chloro-2-((5-cyanopyridin-3-yl)methoxy)-4-((3′-(4-((R)-3-hydroxypyrrolidin-1-yl)butyl)-2,2′-dimethyl-[1,1′-biphenyl]-3-yl)methoxy)benzyl)amino)propanoic Acid] | 0.21 to 10 | –
Cc1cc(OCCCCN2CC[C@@H](O)C2)ccc1-c1cccc(COc2cc(OCc3cncc(C#N)c3)c(CN3CCCC[C@H]3C(=O)O)cc2Cl)c1C [Example 1093, (S)-1-(5-chloro-2-((5-cyanopyridin-3-yl)methoxy)-4-((4′-(4-((R)-3-hydroxypyrrolidin-1-yl)butoxy)-2,2′-dimethyl-[1,1′-biphenyl]-3-yl)methoxy)benzyl)piperidine-2-carboxylic Acid] | 0.21 to 10 | –
Cc1c(CCCCN2CC[C@@H](O)C2)cccc1-c1cccc(COc2cc(OCc3cncc(C#N)c3)c(CN3CCN(C(=O)OC(C)(C)C)C[C@H]3C(=O)O)cc2Cl)c1C [Example 4068, (S)-4-(tert-butoxycarbonyl)-1-(5-chloro-2-((5-cyanopyridin-3-yl)methoxy)-4-((3′-(4-((R)-3-hydroxypyrrolidin-1-yl)butyl)-2,2′-dimethyl-[1,1′-biphenyl]-3-yl)methoxy)benzyl)piperazine-2-carboxylic Acid] | 0.21 to 10 | –
Cc1c(COc2cc(OCc3cncc(C#N)c3)c(CN3CCCC[C@H]3C(=O)O)cc2Cl)cccc1-c1cccc(OCCCN2CCC(N(C)C(=O)OC(C)(C)C)CC2)c1C [Example 2246, (2S)-1-(4-((3′-(3-(4-(tert-butoxycarbonyl(methyl)amino)piperidin-1-yl)propoxy)-2,2′-dimethylbiphenyl-3-yl)methoxy)-5-chloro-2-((5-cyanopyridin-3-yl)methoxy)benzyl)piperidine-2-carboxylic Acid] | 0.21 to 10 | –
